What all share (assay type): biochemical
The target in one assay is T1, FLAG-tagged PRMT1 (Rattus norvegicus, UniProt Q63009).
T1 construct: Full-length FLAG-tagged PRMT protein; made in house; host or cells: Sf9 insect cells (baculovirus)
The assay is described as follows: Fluorescence-based in vitro PRMT assay (F-PRMT assay), PRMT1. Conditions: for Experimental result (PRMT1): vs solvent control = 100%.

In the next assay the target is T2, FLAG-tagged PRMT3 (Homo sapiens, UniProt O60678).
T2 construct: The complete ORFs of human PRMT3 and PRMT6 were inserted; made in house; host or cells: Sf9 insect cells (baculovirus)
The assay is described as follows: Fluorescence-based in vitro PRMT assay (F-PRMT assay), PRMT3. Particulars: Table 1; 100 μM compound, 2 μM PRMT, vs solvent control = 100%, n = 3; racemates used. An excerpt: (§1) To evaluate the effects of the selected candidate molecules on the catalytic activity of type I enzymes, we employed a quantitative fluorescence-based in vitro PRMT activity (F-PRMT) assay using recombinant FLAG-tagged PRMT proteins expressed and affinity-purified from baculovirus-infected Sf9 cells (SI Figure S1, SI Figure S2A).
(§2) Human cell lines (PaTu8988T, PANC-1) were obtained from ATCC (American Type Culture Collection) and cultured in DMEM supplemented with 10% fetal calf serum (FCS, Gibco/BRL), 1% penicillin/streptomycin at 37 °C and 5% CO2. […] For PRMT1 inhibition, cells were treated with type I PRMT inhibitor MS023 hydrochloride (Biomol). For induction of genotoxic stress, cells were treated with gemcitabine (LC Laboratories). […] The following plasmids were used: pFASTBAC-FLAG-rat PRMT1, pFASTBAC-FLAG-mouse PRMT4, and pGEX-GAR. The complete ORFs of human PRMT3 and PRMT6 were inserted into the pFASTBAC HT-3xFLAG B vector via BamHI/HindIII and BamHI/XhoI sites, respectively.
(§3) For PRMT protein expression in insect cells, recombinant baculovirus (bacmid) was generated using the Bac-to-Bac baculovirus system (Invitrogen). Sf9 cells were transfected with bacmid DNA using X-tremeGENE HP DNA transfection reagent (Sigma-Aldrich) according to the manufacturer's instructions. After 3–5 days, supernatants were collected, filtered, and used to infect Sf9 cells to amplify the virus. After 2 rounds of virus amplification and estimation of the final P3 virus titer, the P3 virus (2–5 μL/10^6 cells) was applied for large-scale infection of 200 × 10^6 Sf9 cells in suspension culture at a density of 1 × 10^6 cells/mL. Cells were harvested 5–6 days post-infection by centrifugation at 500 g for 5 min at room temperature. Protein purification from baculovirus-infected Sf9 cells was performed as previously described. , Cells were lysed in BC buffer (20 mM HEPES pH 7.9, 250 mM NaCl, 10% (v/v) glycerin, 0.4 mM EDTA, 1 mM DTT) containing a protease inhibitor cocktail (Roche) by 3 freeze-thaw cycles. After centrifugation at 11,000 rpm (Sorval SS34 rotor) and 4 °C for 1 h, the supernatant (whole cell protein extract) was incubated with anti-FLAG M2 Affinity Gel (Cytiva) at 4 °C and under agitation for 4 h. Subsequently, beads were washed in BC buffer containing various NaCl concentrations (once in BC with 1 M NaCl, twice in BC with 500 mM NaCl, twice in BC with 250 mM NaCl and twice in BC with 100 mM NaCl). FLAG-tagged proteins were either maintained bead-bound as a 50% (v/v) slurry in BC buffer with 100 mM NaCl and stored at −80 °C or were eluted in the appropriate elution buffer (depending on the subsequent assay) containing 0.25 mg/mL 3xFLAG peptides (Sigma-Aldrich) at 4 °C for 30–45 min. To remove the FLAG-peptides from the eluate, dialysis was performed in elution buffer containing 10% (v/v) glycerol at 4 °C for 4–6 h using Slide-A-Lyzer Dialysis Devices (Thermo Fisher Scientific) according to the manufacturer’s recommendations.
(§4) In the first step, the fluorogenic substrate Nα-Benzoyl-L-arginine-7-amido-4-methylcoumarin (Bz-Arg-AMC, Sigma-Aldrich) undergoes methylation by PRMTs upon the addition of the cofactor SAM. In the second reaction step, trypsin cleaves the nonmethylated substrate, leading to the generation of the 7-amino-4-methylcoumarin product, which can be quantified by subsequent fluorescence measurement (excitation: 355 nm, emission: 460 nm). The first reaction was conducted with bead-bound PRMTs at a total volume of 100 μL. Each condition was performed as a technical triplicate to determine the mean and the standard deviation. […] For the negative controls, SAM was substituted with assay buffer. The incubation was continued at 37 °C and under agitation (1,000 rpm) for a duration of 2 h.

Another assay has as its target T3, FLAG-tagged PRMT4 (Mus musculus, UniProt Q9WVG6).
T3 construct: Full-length FLAG-tagged PRMT protein; made in house; host or cells: Sf9 insect cells (baculovirus)
T3 sequence (Q9WVG6 1-608): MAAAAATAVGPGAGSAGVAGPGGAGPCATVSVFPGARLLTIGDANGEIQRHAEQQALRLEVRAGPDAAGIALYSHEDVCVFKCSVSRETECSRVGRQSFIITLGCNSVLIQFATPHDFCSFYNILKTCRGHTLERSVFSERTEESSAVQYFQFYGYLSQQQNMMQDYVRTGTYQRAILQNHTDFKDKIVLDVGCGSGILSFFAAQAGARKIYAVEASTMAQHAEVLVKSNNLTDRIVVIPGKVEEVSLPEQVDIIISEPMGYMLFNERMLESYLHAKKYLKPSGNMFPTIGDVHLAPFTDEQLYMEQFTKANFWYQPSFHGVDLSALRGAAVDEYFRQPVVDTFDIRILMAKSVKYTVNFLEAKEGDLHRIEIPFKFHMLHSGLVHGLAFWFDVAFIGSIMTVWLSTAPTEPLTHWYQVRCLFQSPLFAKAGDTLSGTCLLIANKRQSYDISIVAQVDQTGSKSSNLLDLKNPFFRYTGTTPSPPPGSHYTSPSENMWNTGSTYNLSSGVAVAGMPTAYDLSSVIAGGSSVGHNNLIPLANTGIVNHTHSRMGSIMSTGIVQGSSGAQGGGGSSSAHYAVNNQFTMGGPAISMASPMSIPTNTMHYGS
The assay is described as follows: Fluorescence-based in vitro PRMT assay (F-PRMT assay), PRMT4. Conditions: for Experimental result (PRMT4): vs solvent control = 100%; for Efficacy ±∆% (PRMT4): mean % difference vs solvent control (100%).
Source text: as §1, §2, §3, §4

For another assay, the target named is T4, FLAG-tagged PRMT6 (Homo sapiens, UniProt Q96LA8).
T4 construct: The complete ORFs of human PRMT3 and PRMT6 were inserted; made in house; host or cells: Sf9 insect cells (baculovirus)
The assay is described as follows: Fluorescence-based in vitro PRMT assay (F-PRMT assay), PRMT6. Particulars: Table 1; 100 μM compound, 2 μM PRMT, vs solvent control = 100%, n = 3; racemates used.
Source text: as §1, §2, §3, §4

[1] abbreviates: Table 1, 100 μM compound, 2 μM PRMT, n = 3, racemates used.
[2] abbreviates: Table S2, 100 µM compound, n=3, racemates used.

T1 sequence (Q63009 whole entry): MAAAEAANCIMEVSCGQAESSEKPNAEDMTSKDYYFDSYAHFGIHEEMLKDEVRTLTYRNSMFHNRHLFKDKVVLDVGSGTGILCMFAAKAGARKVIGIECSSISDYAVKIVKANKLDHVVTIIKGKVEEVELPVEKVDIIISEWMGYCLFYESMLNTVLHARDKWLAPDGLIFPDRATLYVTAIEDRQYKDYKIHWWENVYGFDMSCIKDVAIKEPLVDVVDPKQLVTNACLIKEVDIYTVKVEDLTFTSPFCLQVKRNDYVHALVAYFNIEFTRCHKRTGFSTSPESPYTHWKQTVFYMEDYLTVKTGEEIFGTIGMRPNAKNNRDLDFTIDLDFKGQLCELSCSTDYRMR
T2 sequence (O60678 whole entry): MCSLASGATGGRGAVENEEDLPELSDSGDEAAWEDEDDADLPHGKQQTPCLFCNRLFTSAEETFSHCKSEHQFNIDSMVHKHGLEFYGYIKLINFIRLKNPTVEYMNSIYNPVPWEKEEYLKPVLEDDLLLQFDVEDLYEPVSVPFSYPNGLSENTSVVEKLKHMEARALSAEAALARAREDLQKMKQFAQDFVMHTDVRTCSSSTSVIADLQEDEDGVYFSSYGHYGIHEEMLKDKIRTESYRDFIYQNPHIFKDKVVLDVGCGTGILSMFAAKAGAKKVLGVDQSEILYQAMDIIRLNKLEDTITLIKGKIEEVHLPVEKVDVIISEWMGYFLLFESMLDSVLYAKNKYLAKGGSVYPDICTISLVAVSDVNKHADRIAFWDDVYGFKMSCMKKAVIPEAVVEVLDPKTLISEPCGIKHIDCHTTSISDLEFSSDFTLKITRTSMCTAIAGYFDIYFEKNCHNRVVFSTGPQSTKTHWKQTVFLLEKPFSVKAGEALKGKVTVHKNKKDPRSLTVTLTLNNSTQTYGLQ
T4 sequence (Q96LA8 whole entry): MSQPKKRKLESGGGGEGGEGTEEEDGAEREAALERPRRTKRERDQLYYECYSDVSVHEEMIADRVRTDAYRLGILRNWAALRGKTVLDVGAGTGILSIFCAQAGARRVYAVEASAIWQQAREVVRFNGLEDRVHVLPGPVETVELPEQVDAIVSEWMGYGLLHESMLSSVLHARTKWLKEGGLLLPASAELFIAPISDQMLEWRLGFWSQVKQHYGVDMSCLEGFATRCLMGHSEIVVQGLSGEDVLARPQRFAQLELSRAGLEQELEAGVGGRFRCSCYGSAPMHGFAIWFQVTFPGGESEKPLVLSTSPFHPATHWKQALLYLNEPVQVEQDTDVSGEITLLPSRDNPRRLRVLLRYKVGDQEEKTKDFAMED

For the molecule `CNC[C@@H](O)COc1cccc(OC)c1` (racemic) [Compound K001JS003], on FLAG-tagged PRMT1 (setting [1]), the “Experimental result (PRMT1)” value was “PRMT1 n.e. (Compounds, which did not significantly affect the catalytic activity (less than ±6% change or not significant p-value), are marked with [drawing 8] (no effect))”. Also, the “Experimental result (PRMT3)” value on FLAG-tagged PRMT3 is “PRMT3 n.e. (Compounds, which did not significantly affect the catalytic activity (less than ±6% change or not significant p-value), are marked with [drawing 8] (no effect))”. For the same molecule, the “Experimental result (PRMT4)” value on FLAG-tagged PRMT4 (setting [1]) is “PRMT4 i”. Also, the “Experimental result (PRMT6)” value on FLAG-tagged PRMT6 is “PRMT6 n.e. (Compounds, which did not significantly affect the catalytic activity (less than ±6% change or not significant p-value), are marked with [drawing 8] (no effect))”.

`CNC(=O)Cn1cc(NC(=O)[C@@H]2CC[C@@H]2N)cn1` (racemic) [Compound K400JK012]: the “Experimental result (PRMT4)” value on FLAG-tagged PRMT4 (setting [2]) was “n.e. (did not significantly affect the catalytic activity of the intended PRMT (less than ±6% change or not significant p-value), are marked with n.e. (no effect))”.

Take `CNCCCc1ncc(-c2ccccc2Br)[nH]1` [Compound K001FT002]: on FLAG-tagged PRMT4 (setting [2]), the “Experimental result (PRMT4)” value is on record as “n.e. (did not significantly affect the catalytic activity of the intended PRMT (less than ±6% change or not significant p-value), are marked with n.e. (no effect))”.

With `N=C(N)NCCCc1ccccc1Br` [Compound K001FT004], on FLAG-tagged PRMT4 (setting [2]), the “Experimental result (PRMT4)” value is given as “n.e. (did not significantly affect the catalytic activity of the intended PRMT (less than ±6% change or not significant p-value), are marked with n.e. (no effect))”.

Consider `NCCc1cn2cccc(OCc3ccccc3)c2n1` [Compound K001FT005], for which the “Experimental result (PRMT4)” value on FLAG-tagged PRMT4 (setting [2]) is “n.e. (did not significantly affect the catalytic activity of the intended PRMT (less than ±6% change or not significant p-value), are marked with n.e. (no effect))”.

As to `Cn1ccnc1Cn1c(CCCN)nc2c1CCCC2` [Compound K001FT006], the “Experimental result (PRMT4)” value on FLAG-tagged PRMT4 (setting [2]) is “n.e. (did not significantly affect the catalytic activity of the intended PRMT (less than ±6% change or not significant p-value), are marked with n.e. (no effect))”.

`COc1cccc(CNC(=O)NCc2nc3ccccc3s2)c1` [Compound K001FT008]: the “Experimental result (PRMT4)” value on FLAG-tagged PRMT4 (setting [2]) was “n.e. (did not significantly affect the catalytic activity of the intended PRMT (less than ±6% change or not significant p-value), are marked with n.e. (no effect))”.

As to `NCCCNCc1sc2ccccc2c1Cl` [Compound K001FT010], the “Experimental result (PRMT4)” value on FLAG-tagged PRMT4 (setting [2]) was “n.e. (did not significantly affect the catalytic activity of the intended PRMT (less than ±6% change or not significant p-value), are marked with n.e. (no effect))”.

As for `CNCCCNCc1ccccc1Br` [Compound K001FT011], the “Experimental result (PRMT4)” value at FLAG-tagged PRMT4 (setting [2]) is on record as “n.e. (did not significantly affect the catalytic activity of the intended PRMT (less than ±6% change or not significant p-value), are marked with n.e. (no effect))”.

Consider `COc1cccc(NC(=O)COC(=O)c2cc3ccccc3[nH]2)c1` [Compound K001JS005], for which the “Experimental result (PRMT4)” value on FLAG-tagged PRMT4 (setting [2]) is reported as “n.e. (did not significantly affect the catalytic activity of the intended PRMT (less than ±6% change or not significant p-value), are marked with n.e. (no effect))”.

Turning to `O=c1ccc([N+](=O)[O-])cn1Cc1nccn1Cc1ccccc1` [Compound K001JS009], the “Experimental result (PRMT4)” value on FLAG-tagged PRMT4 (setting [2]) is given as “n.e. (did not significantly affect the catalytic activity of the intended PRMT (less than ±6% change or not significant p-value), are marked with n.e. (no effect))”.

Consider `CS(=O)(=O)c1ccc(C(=O)NCc2nc3cc(F)ccc3[nH]2)cc1` [Compound K001JS011], for which the “Experimental result (PRMT4)” value on FLAG-tagged PRMT4 (setting [2]) is given as “n.e. (did not significantly affect the catalytic activity of the intended PRMT (less than ±6% change or not significant p-value), are marked with n.e. (no effect))”.

For the molecule `Cc1ccc([N+](=O)[O-])c(OCCC(=O)Nc2ccc(O)cc2C)c1` [Compound K001JS012], the “Experimental result (PRMT4)” value at FLAG-tagged PRMT4 (setting [2]) is listed as “n.e. (did not significantly affect the catalytic activity of the intended PRMT (less than ±6% change or not significant p-value), are marked with n.e. (no effect))”.

In the case of `COC(=O)COc1ccc(NC(=O)C23CC(CN2)C3)cc1` [Compound K400JK003], at FLAG-tagged PRMT4 (setting [2]), the “Experimental result (PRMT4)” value was “n.e. (did not significantly affect the catalytic activity of the intended PRMT (less than ±6% change or not significant p-value), are marked with n.e. (no effect))”.

Consider `CCS(=O)(=O)Nc1ccc(NC(=O)C23CC(CN2)C3)cc1` [Compound K400JK004], for which the “Efficacy ±∆% (PRMT4)” value on FLAG-tagged PRMT4 (Table S2, 100 µM compound, n=3) was “+8%”.

With `CC1(C(=O)Nc2ccc3nc(CN)[nH]c3c2)CCC1` [Compound K400JK011], the “Efficacy ±∆% (PRMT4)” value on FLAG-tagged PRMT4 (Table S2, 100 µM compound, n=3) is -10%.

Take `N/C(Cn1ccn2nc(-c3cccs3)cc2c1=O)=N\O` [Compound K400JK015]: the “Experimental result (PRMT4)” value on FLAG-tagged PRMT4 (setting [2]) is recorded as “n.e. (did not significantly affect the catalytic activity of the intended PRMT (less than ±6% change or not significant p-value), are marked with n.e. (no effect))”.

Turning to `CCN(CC)Cc1ccc(NS(=O)(=O)c2cc(C)cs2)cc1` [Compound K400JK016], the “Experimental result (PRMT4)” value at FLAG-tagged PRMT4 (setting [2]) was “n.e. (did not significantly affect the catalytic activity of the intended PRMT (less than ±6% change or not significant p-value), are marked with n.e. (no effect))”.

Regarding `CO/C=C1/C(=O)NC(=O)c2ccccc21` [TR-02, (E/Z)-4-(Methoxymethylene)isoquinoline-1,3(2H,4H)-dione], the “effect on PRMT1 activity (in words)” value on FLAG-tagged PRMT1 (100 μM compound) was “no significant effect”. At FLAG-tagged PRMT1 (Table S3, 100 µM compound, n≥3), the “Experimental result (PRMT1)” value is on record as “n.e. (did not significantly affect the catalytic activity (less than ±6% change or not significant p-value), are marked with n.e. (no effect))”. Besides, at FLAG-tagged PRMT4 (Table S3, 100 µM compound, n≥3), the “Experimental result (PRMT4)” value is “n.e. (did not significantly affect the catalytic activity (less than ±6% change or not significant p-value), are marked with n.e. (no effect))”.

(Values after paper PMC13576449, “Small-Molecule Activators of PRMT1: Discovery, SAR Analyses, and Proapoptotic Effects in Pancreatic Cancer Cells” (Journal of Medicinal Chemistry, 2026).)
